One may read the Ki as a dissociation constant, usually derived from enzyme kinetics or from competition with a known ligand. Lower therefore signals a stronger hold on the target.

Drawing on publication PMC6010138, “Synthesis and carbonic anhydrase I, II, VII, and IX inhibition studies with a series of benzo[d]thiazole-5- and 6-sulfonamides” (Journal of Enzyme Inhibition and Medicinal Chemistry, 2017), this text covers Ki for 12 compounds.

Common to all, as to assay: stopped-flow CO2 hydrase assay
What all share (format): biochemical

One experiment has as its target T1, hCA I (Homo sapiens, UniProt P00915).
T1 construct: gene CA1; recombinant, obtained in-house; cytosolic isoform

For the next experiment, the target named is T2, hCA IX (Homo sapiens, UniProt Q16790).
T2 construct: gene CA9; recombinant, obtained in-house; transmembrane isoform

In a further experiment the target is T3, hCA II (Homo sapiens, UniProt P00918).
T3 construct: gene CA2; recombinant, obtained in-house; cytosolic isoform
The text has this: stopped-flow CO2 hydrase assay on hCA II

For a further experiment, the target named is T4, hCA VII (Homo sapiens, UniProt P43166).
T4 construct: gene CA7; recombinant, obtained in-house; cytosolic isoform
The source says: stopped-flow CO2 hydrase assay on hCA VII

T4 sequence (P43166 whole entry, canonical isoform): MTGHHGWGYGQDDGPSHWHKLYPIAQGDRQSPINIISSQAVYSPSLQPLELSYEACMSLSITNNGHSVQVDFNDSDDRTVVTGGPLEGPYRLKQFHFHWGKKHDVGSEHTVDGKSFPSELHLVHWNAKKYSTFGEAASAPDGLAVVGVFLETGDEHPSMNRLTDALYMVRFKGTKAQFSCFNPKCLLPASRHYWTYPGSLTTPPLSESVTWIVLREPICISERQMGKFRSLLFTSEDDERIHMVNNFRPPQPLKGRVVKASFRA
T1 sequence (P00915 2-261): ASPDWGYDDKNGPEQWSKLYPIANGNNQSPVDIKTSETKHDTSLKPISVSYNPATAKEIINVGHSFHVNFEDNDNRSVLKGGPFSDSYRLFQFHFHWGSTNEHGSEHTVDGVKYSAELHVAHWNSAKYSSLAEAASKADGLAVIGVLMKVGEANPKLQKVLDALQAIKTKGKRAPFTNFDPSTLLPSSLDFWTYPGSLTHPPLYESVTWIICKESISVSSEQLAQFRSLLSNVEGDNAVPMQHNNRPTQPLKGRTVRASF

Consider `Nc1nc2c(Br)c(S(N)(=O)=O)ccc2s1` [compound 6, 2-Amino-4-bromobenzo[d]thiazole-5-sulfonamide], for which the Ki at hCA I was determined as 0.705 µM; at hCA IX, 0.0296 µM; on hCA II, 0.0078 µM; on hCA VII, 0.0008 µM.

In the case of `NC(=S)Nc1cccc(S(N)(=O)=O)c1` [compound 3, 3-Thioureidobenzenesulfonamide], the Ki on hCA I amounted to 0.917 µM; at hCA IX, 0.296 µM; on hCA II, 0.149 µM; on hCA VII, 0.075 µM.

Take `CC(=O)Nc1nc2cc(S(N)(=O)=O)ccc2s1` [compound 11, N-(5-sulfamoylbenzo[d]thiazol-2-yl)acetamide]: the inhibition constant Ki on hCA I was found to be 0.341 µM; on hCA IX, 0.0326 µM; on hCA II, 0.042 µM; on hCA VII, 0.0815 µM.

Regarding `NS(=O)(=O)c1ccc2nc(NC(=O)c3ccccc3C(=O)O)sc2c1` [compound 12, 2-((6-Sulfamoylbenzo[d]thiazol-2-yl)carbamoyl)benzoic acid], the inhibitory constant (Ki) is 0.0971 µM at hCA I, 0.01 µM on hCA IX, 0.0135 µM on hCA II and 0.0465 µM on hCA VII.

Turning to `Nc1nc2ccc(S(N)(=O)=O)cc2s1` [compound 2, 2-Aminobenzo[d]thiazole-6-sulfonamide], the Ki on hCA I was 0.0841 µM; at hCA IX it was 0.0037 µM; at hCA II, 0.0336 µM; at hCA VII, 0.0842 µM.

Regarding `CC(=O)Nc1nc2c(Br)cc(S(N)(=O)=O)cc2s1` [compound 10, N-(4-bromo-6-sulfamoylbenzo[d]thiazol-2-yl)acetamide], the inhibitory constant (Ki) on hCA I stood at 2.33 µM; at hCA IX, 0.0344 µM; at hCA II it was 0.211 µM; at hCA VII it was 0.0806 µM.

As to `NC(=S)Nc1ccc(S(N)(=O)=O)cc1` [compound 1, 4-Thioureido-benzenesulfonamide], the inhibition constant (Ki) on hCA I is 0.471 µM; at hCA IX, 0.0329 µM; at hCA II it was 0.07 µM; on hCA VII it was 0.0754 µM.

As to `Nc1nc2c(I)cc(S(N)(=O)=O)cc2s1` [compound 7, 2-Amino-4-iodobenzo[d]thiazole-6-sulfonamide], the inhibition constant (Ki) at hCA I is 0.606 µM; on hCA IX, 0.212 µM; on hCA II, 0.0151 µM; on hCA VII, 0.0923 µM.

For `Nc1nc2c(I)c(S(N)(=O)=O)ccc2s1` [compound 8, 2-Amino-4-iodobenzo[d]thiazole-5-sulfonamide], the Ki on hCA I came to 0.482 µM; on hCA IX it was 0.1 µM; on hCA II, 0.0515 µM; on hCA VII, 0.0422 µM.

Take `CC(=O)Nc1nc2ccc(S(N)(=O)=O)cc2s1` [compound 9, N-(6-sulfamoylbenzo[d]thiazol-2-yl)acetamide]: the inhibitory constant (Ki) on hCA I amounted to 0.361 µM; on hCA IX, 0.0232 µM; at hCA II, 0.0208 µM; on hCA VII, 0.0544 µM.

Regarding `Nc1nc2c(Br)cc(S(N)(=O)=O)cc2s1` [compound 5, 2-Amino-4-bromobenzo[d]thiazole-6-sulfonamide], the inhibition constant (Ki) on hCA I is 0.306 µM; on hCA IX, 0.0162 µM; on hCA II, 0.0087 µM; on hCA VII it was 0.0311 µM.

Consider `Nc1nc2cc(S(N)(=O)=O)ccc2s1` [compound 4, 2-Aminobenzo[d]thiazole-5-sulfonamide], for which the Ki at hCA I was found to be 0.795 µM; on hCA IX, 0.0382 µM; on hCA II, 0.369 µM; on hCA VII, 0.0565 µM.
